Data from patent US6159963A, “Method for treating substance abuse” (Eli Lilly and Company, priority 1996, dated 2000).

Key:
[1] = tested on: 5-HT1C receptor; assay: pharmacological studies, 5-HT1C receptor activity
[2] = tested on: patients; assay: double-blind multicenter clinical trial, olanzapine versus placebo; type: in vivo, human; settings: patients randomized to olanzapine or placebo
Excerpt: A double-blind multicenter clinical trial was designed to assess the safety and efficacy of olanzapine. Patients were randomized to olanzapine or placebo.

[3] = tested on: muscarinic cholinergic receptor; assay: pharmacological studies, muscarinic cholinergic receptor activity

Cc1cc2c(s1)Nc1ccccc1N=C2N1CCN(C)CC1 [olanzapine, 2-methyl-4-(4-methyl-1-piperazinyl)-10H-thieno[2,3-b][1,5]benzodiazepine] was tested, and the “activity at the 5-HT1C receptor” value [1] was “active”, the “usefulness for treatment of addictive substance withdrawal (clinical observations)” value [2] was “can be useful for the treatment of addictive substance withdrawal” and the “muscarinic cholinergic receptor activity” value [3] was “has muscarinic cholinergic receptor activity”.
